Values after ≈ are worked out from the molar mass of the structure shown.
target: T1, Cyclin-dependent kinase 9 (Homo sapiens, UniProt P50750); experiment: Inhibition of CDK9 in human MV4-11 cells assessed as induction of caspase-3/7 activation measured after 6 hrs followed by Caspase-glo reagent based assay; type: cell-based; details: not given
T1 sequence (P50750 whole entry): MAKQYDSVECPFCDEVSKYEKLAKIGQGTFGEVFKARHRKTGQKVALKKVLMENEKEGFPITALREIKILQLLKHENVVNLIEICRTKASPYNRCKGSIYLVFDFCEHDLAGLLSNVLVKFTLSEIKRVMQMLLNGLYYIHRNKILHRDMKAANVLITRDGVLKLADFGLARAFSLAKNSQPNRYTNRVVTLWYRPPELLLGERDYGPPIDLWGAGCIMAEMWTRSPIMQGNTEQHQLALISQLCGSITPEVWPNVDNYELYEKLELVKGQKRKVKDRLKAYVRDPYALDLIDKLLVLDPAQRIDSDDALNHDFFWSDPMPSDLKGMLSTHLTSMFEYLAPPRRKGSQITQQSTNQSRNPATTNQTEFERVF

EC50 [nM]	SMILES
38	CC1(C)Cc2c(-c3cc(NC(=O)[C@H]4C[C@@H](O)C4)ncc3Cl)cnn2C1
560	CC(=O)N[C@@H]1CCC[C@H](C(=O)Nc2cc(-c3cnn(C)c3C)c(Cl)cn2)C1
330	CC(=O)N[C@@H]1CCC[C@H](C(=O)Nc2cc(-c3cnn4c3CCC4)c(Cl)cn2)C1
100	CC(=O)N[C@@H]1CCC[C@H](C(=O)Nc2cc(-c3cnn4c3CC(C)(C)C4)ccn2)C1
910	CC(=O)N[C@@H]1CCC[C@H](C(=O)Nc2cc(-c3cnn4c3CN(C)CC4)c(Cl)cn2)C1
92	CC(=O)N[C@@H]1CCC[C@H](C(=O)Nc2cc(-c3cnn4c3CC(C)C4)c(Cl)cn2)C1 (stereo in doubt; 28)
670	CC(=O)N[C@@H]1CCC[C@H](C(=O)Nc2cc(-c3cnn4c3NCCC4)c(Cl)cn2)C1

target: CDK9/cyclin T1 (Homo sapiens, UniProt P50750); experiment: Inhibition of recombinant full length human N-terminal GST-fused CDK9 (1 to 372 residues)/His-tagged CyclinT1 (1 to 726 residues) expressed in baculovirus infected insect cells using FITC-X-GSRTPMY-NH2 as substrate preincubated for 10 mins followed by MgCl2 addition and measured after 90 mins in presence of 5 mM ATP by mobility shift assay; details: not given
Sequence (O60563 whole entry, the tested form may be a part): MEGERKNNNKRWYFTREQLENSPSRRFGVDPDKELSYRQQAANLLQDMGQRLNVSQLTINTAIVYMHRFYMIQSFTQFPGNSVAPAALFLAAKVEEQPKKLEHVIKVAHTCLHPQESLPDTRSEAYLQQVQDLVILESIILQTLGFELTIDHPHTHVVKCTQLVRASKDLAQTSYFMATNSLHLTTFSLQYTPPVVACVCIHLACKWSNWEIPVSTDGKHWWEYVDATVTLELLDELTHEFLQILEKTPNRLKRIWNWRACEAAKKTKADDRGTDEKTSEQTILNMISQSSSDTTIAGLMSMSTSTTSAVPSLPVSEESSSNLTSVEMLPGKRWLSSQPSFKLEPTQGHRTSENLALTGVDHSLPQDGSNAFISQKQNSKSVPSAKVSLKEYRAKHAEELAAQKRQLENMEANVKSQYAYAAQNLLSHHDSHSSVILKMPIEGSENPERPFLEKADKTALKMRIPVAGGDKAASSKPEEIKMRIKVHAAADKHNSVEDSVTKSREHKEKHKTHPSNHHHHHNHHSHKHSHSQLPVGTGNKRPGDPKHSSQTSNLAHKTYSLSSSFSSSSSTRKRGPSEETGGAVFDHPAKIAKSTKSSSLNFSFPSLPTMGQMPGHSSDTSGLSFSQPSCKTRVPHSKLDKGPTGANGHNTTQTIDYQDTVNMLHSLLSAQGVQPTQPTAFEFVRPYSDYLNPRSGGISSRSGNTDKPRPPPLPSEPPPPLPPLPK
Sequence (P50750 whole entry, the tested form may be a part): as the sequence (P50750 whole entry) above

IC50 [nM]	SMILES
270	CC(=O)N[C@@H]1CCC[C@H](C(=O)Nc2cc(-c3cnn(C)c3C)c(Cl)cn2)C1
180	CC(=O)N[C@@H]1CCC[C@H](C(=O)Nc2cc(-c3cnn4c3CCC4)c(Cl)cn2)C1
29	CC(=O)N[C@@H]1CCC[C@H](C(=O)Nc2cc(-c3cnn4c3CC(C)(C)C4)ccn2)C1
220	CC(=O)N[C@@H]1CCC[C@H](C(=O)Nc2cc(-c3cnn4c3CN(C)CC4)c(Cl)cn2)C1
26	CC(=O)N[C@@H]1CCC[C@H](C(=O)Nc2cc(-c3cnn4c3CC(C)C4)c(Cl)cn2)C1 (stereo in doubt; 28)

tested on: not listed separately; experiment: Solubility of compound in phosphate buffer at pH 7.4 using dried form of sample; type: physicochemical; details: buffer

solubility [µM]	SMILES
79 (≈ 32.9 µg/mL)	CC(=O)N[C@@H]1CCC[C@H](C(=O)Nc2cc(-c3cnn4c3CC(C)C4)c(Cl)cn2)C1 (stereo in doubt; 28)

same assay, conditions: phosphate buffer, read-out: solubility

solubility [µM]	SMILES
15 (≈ 5.41 µg/mL)	CC1(C)Cc2c(-c3cc(NC(=O)[C@H]4C[C@@H](O)C4)ncc3Cl)cnn2C1
960 (≈ 374 µg/mL)	CC(=O)N[C@@H]1CCC[C@H](C(=O)Nc2cc(-c3cnn(C)c3C)c(Cl)cn2)C1
160 (≈ 64.3 µg/mL)	CC(=O)N[C@@H]1CCC[C@H](C(=O)Nc2cc(-c3cnn4c3CCC4)c(Cl)cn2)C1
970 (≈ 384 µg/mL)	CC(=O)N[C@@H]1CCC[C@H](C(=O)Nc2cc(-c3cnn4c3CC(C)(C)C4)ccn2)C1
870 (≈ 375 µg/mL)	CC(=O)N[C@@H]1CCC[C@H](C(=O)Nc2cc(-c3cnn4c3CN(C)CC4)c(Cl)cn2)C1
860 (≈ 359 µg/mL)	CC(=O)N[C@@H]1CCC[C@H](C(=O)Nc2cc(-c3cnn4c3NCCC4)c(Cl)cn2)C1

tested on: not listed separately; experiment: Lipophilicity, log D of compound in buffer/octanol at pH 7.4 by shake flask method; type: physicochemical; details: not given

logD	SMILES
3.2	CC1(C)Cc2c(-c3cc(NC(=O)[C@H]4C[C@@H](O)C4)ncc3Cl)cnn2C1
2.6	CC(=O)N[C@@H]1CCC[C@H](C(=O)Nc2cc(-c3cnn(C)c3C)c(Cl)cn2)C1
2.9	CC(=O)N[C@@H]1CCC[C@H](C(=O)Nc2cc(-c3cnn4c3CCC4)c(Cl)cn2)C1
2.8	CC(=O)N[C@@H]1CCC[C@H](C(=O)Nc2cc(-c3cnn4c3CC(C)(C)C4)ccn2)C1
2.1	CC(=O)N[C@@H]1CCC[C@H](C(=O)Nc2cc(-c3cnn4c3CN(C)CC4)c(Cl)cn2)C1
3.4	CC(=O)N[C@@H]1CCC[C@H](C(=O)Nc2cc(-c3cnn4c3CC(C)C4)c(Cl)cn2)C1 (stereo in doubt; 28)
2.4	CC(=O)N[C@@H]1CCC[C@H](C(=O)Nc2cc(-c3cnn4c3NCCC4)c(Cl)cn2)C1

target: T1, Cyclin-dependent kinase 9; experiment: Inhibition of CDK9 in human MCF7 cells assessed as reduction in RNA Polymerase 2 CTD phosphorylation at Ser2 residues measured after 6 hrs by immunofluorescence assay; type: cell-based; details: not given

IC50 [nM]	SMILES
44	CC1(C)Cc2c(-c3cc(NC(=O)[C@H]4C[C@@H](O)C4)ncc3Cl)cnn2C1
440	CC(=O)N[C@@H]1CCC[C@H](C(=O)Nc2cc(-c3cnn(C)c3C)c(Cl)cn2)C1
530	CC(=O)N[C@@H]1CCC[C@H](C(=O)Nc2cc(-c3cnn4c3CCC4)c(Cl)cn2)C1
150	CC(=O)N[C@@H]1CCC[C@H](C(=O)Nc2cc(-c3cnn4c3CC(C)(C)C4)ccn2)C1
800	CC(=O)N[C@@H]1CCC[C@H](C(=O)Nc2cc(-c3cnn4c3CN(C)CC4)c(Cl)cn2)C1
36	CC(=O)N[C@@H]1CCC[C@H](C(=O)Nc2cc(-c3cnn4c3CC(C)C4)c(Cl)cn2)C1 (stereo in doubt; 28)
860	CC(=O)N[C@@H]1CCC[C@H](C(=O)Nc2cc(-c3cnn4c3NCCC4)c(Cl)cn2)C1

tested on: not listed separately; experiment: Intrinsic clearance in human liver microsome; type: ADME, microsomes; details: liver microsomes, read-out: CLH

microsomal CLint [µL/min/mg]	SMILES
25	CC1(C)Cc2c(-c3cc(NC(=O)[C@H]4C[C@@H](O)C4)ncc3Cl)cnn2C1
3.3	CC(=O)N[C@@H]1CCC[C@H](C(=O)Nc2cc(-c3cnn(C)c3C)c(Cl)cn2)C1
< 3	CC(=O)N[C@@H]1CCC[C@H](C(=O)Nc2cc(-c3cnn4c3CCC4)c(Cl)cn2)C1
< 3	CC(=O)N[C@@H]1CCC[C@H](C(=O)Nc2cc(-c3cnn4c3CC(C)(C)C4)ccn2)C1
< 3	CC(=O)N[C@@H]1CCC[C@H](C(=O)Nc2cc(-c3cnn4c3CN(C)CC4)c(Cl)cn2)C1
13	CC(=O)N[C@@H]1CCC[C@H](C(=O)Nc2cc(-c3cnn4c3CC(C)C4)c(Cl)cn2)C1 (stereo in doubt; 28)
6.2	CC(=O)N[C@@H]1CCC[C@H](C(=O)Nc2cc(-c3cnn4c3NCCC4)c(Cl)cn2)C1

tested on: not listed separately; experiment: Intrinsic clearance in rat cryopreserved hepatocytes assessed per million cells […]; type: ADME, cell-based, Hepatocyte; details: cryopreserved hepatocytes, read-out: CLH

hepatocyte CLint [µL/min/1e6 cells]	SMILES
157	CC1(C)Cc2c(-c3cc(NC(=O)[C@H]4C[C@@H](O)C4)ncc3Cl)cnn2C1
10	CC(=O)N[C@@H]1CCC[C@H](C(=O)Nc2cc(-c3cnn(C)c3C)c(Cl)cn2)C1
72	CC(=O)N[C@@H]1CCC[C@H](C(=O)Nc2cc(-c3cnn4c3CCC4)c(Cl)cn2)C1
45	CC(=O)N[C@@H]1CCC[C@H](C(=O)Nc2cc(-c3cnn4c3CC(C)(C)C4)ccn2)C1
7.7	CC(=O)N[C@@H]1CCC[C@H](C(=O)Nc2cc(-c3cnn4c3CN(C)CC4)c(Cl)cn2)C1
97	CC(=O)N[C@@H]1CCC[C@H](C(=O)Nc2cc(-c3cnn4c3CC(C)C4)c(Cl)cn2)C1 (stereo in doubt; 28)
10	CC(=O)N[C@@H]1CCC[C@H](C(=O)Nc2cc(-c3cnn4c3NCCC4)c(Cl)cn2)C1

tested on: not listed separately; experiment: Intrinsic clearance in human cryopreserved hepatocytes assessed per million cells […]; type: ADME, cell-based, Hepatocyte; details: read-out: CLH

hepatocyte CLint [µL/min/1e6 cells]	SMILES
106	CC1(C)Cc2c(-c3cc(NC(=O)[C@H]4C[C@@H](O)C4)ncc3Cl)cnn2C1
< 1	CC(=O)N[C@@H]1CCC[C@H](C(=O)Nc2cc(-c3cnn(C)c3C)c(Cl)cn2)C1
< 1	CC(=O)N[C@@H]1CCC[C@H](C(=O)Nc2cc(-c3cnn4c3CC(C)(C)C4)ccn2)C1

— ChEMBL document CHEMBL4673352, “Discovery of AZD4573, a Potent and Selective Inhibitor of CDK9 That Enables Short Duration of Target Engagement for the Treatment of Hematological Malignancies” (J Med Chem, 2020)
